We go through 23 molecules from ChEMBL document CHEMBL4041477, “Design, synthesis and biological evaluation of novel 2,3-dihydroquinazolin- 4(1H)-one derivatives as potential fXa inhibitors” (Eur J Med Chem, 2017).

Series [1] has as its target Coagulation factor X (Homo sapiens, UniProt P00742). As to the kind of experiment: Inhibition of human factor 10a using substrate S-2765 preincubated for 30 mins followed by substrate addition measured after 20 mins by micro plate reader method.
For series [2], the target named is Prothrombin (Homo sapiens, UniProt P00734). As to the kind of experiment: Inhibition of human thrombin using substrate S-2238 preincubated for 30 mins followed by substrate addition measured after 20 mins by micro plate reader method.
For series [3], the system named is Plasma. The series is described as follows: Anticoagulant activity in rabbit plasma assessed as increase in prothrombin time after 10 mins by coagulometer. Type of series: functional, Oryctolagus cuniculus.
For series [4], the system named is Plasma. As to the kind of experiment: Anticoagulant activity in rabbit plasma assessed as increase in activated partial thromboplastin time after 10 mins by coagulometer. It is filed as functional, Oryctolagus cuniculus.
In series [5] the test system is Rattus norvegicus. The series is described as follows: Toxicity in po dosed rat assessed as increase in tail bleeding time administered 60 mins prior to tail transection measured over 30 mins. Type of series: organism-based. The conditions noted are these: in vivo, 0.5 h.
The subject of series [6] is Rattus norvegicus. The series is described as follows: Antithrombotic activity in rat model of arteriovenous shunt assessed as reduction in thrombus weight at 10 mg/kg, po administered 60 mins prior to shunt opening. It is filed as functional, organism-based.
The subject of series [7] is Rattus norvegicus. As to the kind of experiment: Antithrombotic activity in po dosed rat model of arteriovenous shunt assessed as reduction in thrombus weight administered 60 mins prior to shunt opening. It is filed as functional, organism-based.

Coagulation factor X, sequence (P00742 41-179 limits assumed): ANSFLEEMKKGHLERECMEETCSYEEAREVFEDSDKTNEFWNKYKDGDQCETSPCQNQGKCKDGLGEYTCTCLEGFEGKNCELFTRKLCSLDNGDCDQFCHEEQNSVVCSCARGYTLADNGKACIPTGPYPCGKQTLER
Coagulation factor X, sequence (P00742 235-488 limits assumed): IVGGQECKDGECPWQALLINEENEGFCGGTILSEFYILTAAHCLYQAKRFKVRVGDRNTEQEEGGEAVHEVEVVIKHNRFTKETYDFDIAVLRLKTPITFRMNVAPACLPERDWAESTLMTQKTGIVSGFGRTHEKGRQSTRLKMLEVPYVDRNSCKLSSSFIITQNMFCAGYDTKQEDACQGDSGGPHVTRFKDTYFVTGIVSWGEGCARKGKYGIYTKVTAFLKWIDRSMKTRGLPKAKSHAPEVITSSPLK

As to `COc1ccc2c(c1)C(=O)N(c1ccc(N3CCOCC3=O)cc1)CN2C(=O)Cc1ccc(Cl)cc1Cl`, the IC50 in series [1] is 498 nM.
As to `COc1ccc2c(c1)C(=O)N(c1ccc(N3CCCCC3=O)cc1)CN2C(=O)c1ccc(Cl)s1`, inhibition in series [1] was half-maximal at 179000 nM (IC50).
Take `COc1ccc2c(c1)C(=O)N(c1ccc(-n3ccccc3=O)cc1)CN2C(=O)Cc1ccc(Cl)cc1`: the half-inhibitory concentration (IC50) in series [1] is 165 nM.
`COc1ccc2c(c1)C(=O)N(c1ccc(N3CCCCC3=O)cc1)CN2C(=O)Cc1ccc(NC(C)=O)cc1` returned an IC50 in series [1] of 234 nM.
Regarding `COc1ccc2c(c1)C(=O)N(c1ccc(N3CCOCC3=O)cc1)CN2C(=O)Cc1ccc(Cl)cc1`, the IC50 in series [1] came to 42 nM; in series [2] it was 81000 nM. In series [3], the 2PT is 11.6 µM. Moreover, the 2aPTT in series [4] amounted to 16.1 µM.
With `COc1ccc2c(c1)C(=O)N(c1ccc(N3CCOCC3=O)cc1)CN2C(=O)CCc1ccc(Cl)cc1`, the half-inhibitory concentration (IC50) in series [1] amounted to 2210 nM.
`COc1ccc2c(c1)C(=O)N(c1ccc(N3CCCCC3=O)cc1)CN2C(=O)Cc1ccc(Cl)cc1` showed an IC50 in series [1] of 127 nM.
Regarding `COc1ccc2c(c1)C(=O)N(c1ccc(N3CCCCC3=O)cc1)CN2C(=O)Cc1ccccc1`, the half-maximal inhibitory concentration (IC50) in series [1] worked out at 4060 nM. This IC50 is about 32-fold higher than that of the molecule before.
Consider `COc1ccc(C(=O)N2CN(c3ccc(N4CCCCC4=O)cc3)C(=O)c3cc(OC)ccc32)cc1`, for which the midpoint of inhibition in series [1], the IC50, lay at 113000 nM.
In the case of `COc1ccc(NC(=O)c2ccc(C(=N)N(C)C)cc2)c(C(=O)Nc2ccc(Cl)cn2)c1` [BETRIXABAN], in series [3], the 2PT came to 2.4 µM. The 2aPTT in series [4] was found to be 1.1 µM. Besides, the Activity result in series [5] and in series [6] was “Dose-dependent effect” throughout.
Take `COc1cccc(C(=O)N2CN(c3ccc(N4CCCCC4=O)cc3)C(=O)c3cc(OC)ccc32)c1`: in series [1], the IC50 came to 354000 nM.
In turn, `COc1ccc2c(c1)C(=O)N(c1ccc(N3CCCCC3=O)cc1)CN2C(=O)c1ccccc1` showed a concentration for half-maximal inhibition (IC50) in series [1] of 546000 nM. This IC50 is about 1.5-fold higher than that of the molecule before.
Same read-out and setting: for `COc1ccc2c(c1)C(=O)N(c1ccc(N3CCCCC3=O)cc1)CN2C(=O)Cc1ccccc1Cl` the value was 1340 nM.
Regarding `COc1ccc2c(c1)C(=O)N(c1ccc(N3CCOCC3=O)cc1)CN2C(=O)Cc1ccc(Cl)cn1`, in series [1], the IC50 stood at 157 nM.
Take `COc1ccc(CC(=O)N2CN(c3ccc(N4CCCCC4=O)cc3)C(=O)c3cc(OC)ccc32)cc1`: the IC50 in series [1] is 887 nM.
The molecule `COc1ccc2c(c1)C(=O)N(c1ccc(N3CCCCC3=O)cc1)CN2C(=O)c1ccc(Cl)cc1` displayed a half-inhibitory concentration (IC50) in series [1] of 52000 nM. Against the preceding molecule, the IC50 is about 59-fold higher.
Still for that read-out and setting: for `COc1ccc2c(c1)C(=O)N(c1ccc(N3CCCCC3=O)cc1)CN2C(=O)c1cccc(Cl)c1` the value was 243000 nM; for `COc1ccc(CC(=O)N2CN(c3ccc(N4CCCCC4=O)cc3)C(=O)c3cc(OC)ccc32)c(OC)c1`, 1270 nM; for `COc1ccc2c(c1)C(=O)N(c1ccc(N3CCOCC3=O)cc1)CN2C(=O)c1ccc(CCl)cc1`, 1410 nM.
Molecule `COc1ccc2c(c1)C(=O)N(c1ccc(N3CCCCC3=O)cc1)CN2C(=O)Cc1cccc(Cl)c1` had a concentration for half-maximal inhibition (IC50) in series [1] of 532 nM.
Take `COc1ccc2c(c1)C(=O)N(c1ccc(N3CCOCC3=O)cc1)CN2C(=O)Cc1ccc(Cl)s1`: the half-maximal inhibitory concentration (IC50) was 21 nM in series [1] and 67000 nM in series [2]. Besides, in series [3], the 2PT stood at 1.2 µM. In addition, the 2aPTT in series [4] was 0.6 µM. For the same molecule, the Activity entry in series [7] and in series [5] was “Dose-dependent effect” throughout.
Regarding `COc1ccc(CC(=O)N2CN(c3ccc(N4CCOCC4=O)cc3)C(=O)c3cc(OC)ccc32)cc1`, the IC50 in series [1] turned out to be 717 nM. This counts as sub-micromolar.
On to `COc1ccc2c(c1)C(=O)N(c1ccc(N3CCOCC3=O)cc1)CN2C(=O)Cc1ccc(Cl)c(Cl)c1`, for which the 50% inhibitory concentration (IC50) in series [1] was found to be 345 nM. Compared with the last molecule, the IC50 is about 2.1-fold lower.

As a reminder, the IC50 is the concentration needed to halve the response being measured.
